Patent publication US5616618A, “Threo-3-(3,4-dihydroxyphenyl)serine analgesic composition” (priority 1993, dated 1997)
“Also recorded” adds a separate entry of the source.

Columns and labels:
mice [1] = assay: Effect of benserazide on L-threo-DOPS antinociception, tail flick test; assay type: in vivo; conditions: L-threo-DOPS 400 mg/kg s.c., 60 minutes
Protocol: Effect of Benserazide (Peripheral Nerve Decarboxylase Inhibitor) on the Antinociceptive Action of L-threo-DOPS
Benserazide was administered subcutaneously in a dose of 1 mg/kg, 60 minutes before the subcutainious administration of L-threo-DOPS (400 mg/kg). Alternatively, benserazide was administered intracerebralventricularly at a dose of 25 μg/mouse, 30 minutes before L-threo-DOPS was subcutaneously administered in a dose of 400 mg/kg. The effect of benserazide on the L-threo-DOPS-induced antinociceptive action 60 minutes after the L-threo-DOPS administration was examined according to the tail flick test.
(§1) The results obtained in this test are all shown by means ±standard error. Statistically significant difference between the groups was determined by Student's t-test or Newman-Keuls test. When P<0.05, the difference was judged to be significant.
The results in FIG. 6 indicate change in latency (Δ latency, second) 60 minutes after the L-threo-DOPS administration. […] The symbol V denotes the group administered with vehicle only, and the symbol N.S. denotes that there is no significant difference as compared to the control group.

mice [2] = assay: Kaolin-induced writhing test; assay type: in vivo
Text: (§2) Mice were used for the kaolin-induced writhing test and the formalin test, wherein animal model for assessment of chronic pain is used [Pain, 51, 195-198 (1992)].
b) Kaolin-Induced Writhing Test
The test was proposed by Fujiyoshi, T. et al. as a nociceptive test for the assessment of endogenous bradykinin-induced pain [Fujiyoshi et al., Agents and Actions, 27, 332 (1989)]. In the present invention, a method somewhat modified from the Fujiyoshi test was used for the assessment. That is, a suspension of 125 mg/kg of kaolin in 0.2% Tween 80 solution was intraperitoneally administered to mice in a dose of 0.25 ml/10 g. Immediately thereafter, the total number of writhing reactions which were observed during 20 minutes was counted.
Thirty minutes, 1 hour and 2 hours before administration of kaolin, L-threo-DOPS was subcutaneously administered in a dose ranging from 100 to 400 mg/kg.
(§3) In the left graph, the symbol .largecircle. denotes the group administered with vehicle only, and the symbol .circle-solid. denotes the group administered with L-threo-DOPS. […] The symbol V denotes the group administered with vehicle only (n=5). **P<0.01, ***P<0.001 (when compared to the group administered with vehicle only).
(§4) The results obtained in the respective tests are all shown by means ±standard error. Statistically significant difference between the groups was determined by Student's t-test or Newman-Keuls test. When P<0.05, the difference was judged to be significant.

mice [3] = assay: Tail flick test, subcutaneous L-threo-DOPS; assay type: in vivo
Protocol: Thermal stimulation at a certain level was given onto mice at the tail, and the latency until the animal flicked the tail out of the thermal stimulation was measured. The analgesic effect was judged in terms of prolonged latency by administration of a drug (tail-flick test, see European Journal of Pharmacology, 212, 1992).
The test was conducted by using a tail flick analgesia meter (MK-330, Muromachi Kikai). The intensity of the beam was adjusted to produce a control latency of 2 to 2.5 seconds, and a cut-off time was set to be 8 seconds. The experimental data obtained were shown in terms of latency (second).
L-Threo-DOPS was suspended in a 0.2% Tween 80 solution and the resulting suspension was subcutaneously administered in a dose of 100 to 400 mg/kg. The tail flick latency was then measured with passage of time to determine antinociceptive action, namely, analgesic activity.
as §3, with “only (n=8),” for “only,”, “L-threo-DOPS (n=5).” for “L-threo-DOPS.”, “In the right graph, the” for “The”, “only. *P<0.05, **P<0.01” for “only (n=5). **P<0.01, ***P<0.001”
as §4

mice [4] = assay: Effect of naloxone on L-threo-DOPS antinociception, tail flick test; assay type: in vivo; conditions: for type of analgesic activity: from naloxone tests (tail flick and kaolin)
Protocol: (§5) Antagonistic Effect of L-threo-DOPS Antinociceptive Action on Naloxone (Morphine Antagonist)
(§6) Tests were conducted in the same way as the tail flick test method and the kaolin-induced writhing test method in Test Example 1 described above. In the tail flick test method, however, 1 mg/kg of naloxone was subcutaneously administered 40 minutes after administration of 400 mg/kg of L-threo-DOPS, and the latency was measured 60 minutes after the 400 mg/kg L-threo-DOPS administration. The obtained data are shown in terms of change in latency (Δ latency). In the kaolin-induced writhing test, 0.01 mg/kg of naloxone was subcutaneously administered 55 minutes after administration of 400 mg/kg of L-threo-DOPS, and kaolin was administered 5 minutes after the administration of naloxone.
(§7) The results obtained in the tests are all shown by means ±standard error. Statistically significant difference between the groups was determined by Student's t-test or Newman-Keuls test. When P<0.05, the difference was judged to be significant.
(§8) The symbol V denotes the group administered with vehicle only, and the symbol N.S. denotes that there is no significant difference as compared to the control group.

mice [5] = assay: Effect of naloxone on L-threo-DOPS antinociception, kaolin-induced writhing test; assay type: in vivo; conditions: L-threo-DOPS 400 mg/kg; naloxone 0.01 mg/kg s.c.; 60 minutes
Protocol: as §5, §6, §7, §8

mice [6] = assay: Tail flick test, oral L-threo-DOPS; assay type: in vivo
Protocol: Antinociceptive Action of L-threo-DOPS by Oral Administration
L-Threo-DOPS was orally administered to mice in doses of 200, 400 and 800 mg/kg, and was examined for the antinociceptive action according to the tail flick test method.
as §1
The results in FIG. 7 indicate, in the tail flick test, a relationship between the dose of L-threo-DOPS when orally administered and change in latency (Δ latency, second) 60 minutes after the L-threo-DOPS administration (n=6). *P<0.05, **P<0.01 (as compared to the control group).

mice [7] = assay: Formalin-induced nociceptive test; assay type: in vivo
Protocol: as §2
c) Formalin-Induced Nociceptive Test
Formalin (0.5%, 25 μl) was administered subcutaneously into a mouse at the sole of the right hind paw. Immediately thereafter, the time required for the mouse to conduct licking or biting behavior was counted for 30 minutes at intervals of 5 minutes. The results are shown separately for Phase I (0-5 minutes after the formalin administration) and Phase II (10-30 minutes after the formalin administration). […]
The symbol V denotes the group administered with vehicle only. *P<0.05 (as compared to the group administered with vehicle only).
as §4

mice [8] = assay: Effect of phentolamine on L-threo-DOPS antinociception, tail flick test; assay type: in vivo
Protocol: Effect of Phentolamine as an α-Adrenaline Receptor Blocker on the Antinociceptive Action of L-threo-DOPS
Phentolamine was administered intracerebral-ventricularly (i.c.v.) or intrathecaly (i.th.) in a dose of 0.1 to 1 μg/mouse, 40 minutes after L-threo-DOPS was administered in a dose of 400 mg/kg. Then, the effect of phentolamine against L-threo-DOPS-induced antinociceptive action was determined in the tail flick test.
Statistically significant difference between the groups was determined by Student's t-test or Newman-Keuls test. When P<0.05, the difference was judged to be significant.
The results in FIG. 5 indicates change in latency (Δ latency, second) 60 minutes after the L-threo-DOPS administration.

[9] = Acute toxicity (LD50) in mouse; conditions: in vivo
mouse = assay: Acute toxicity (LD50) in mouse; conditions: oral and intraperitoneal
[10] = cited from earlier work
[11] = 100 to 400 mg/kg s.c., 60 minutes after administration

For `N[C@H](C(=O)O)[C@H](O)c1ccc(O)c(O)c1` [L-threo-DOPS], the “antinociceptive action in presence of benserazide” value (mice [1]; benserazide 25 μg/mouse i.c.v.) was “potently inhibited”, the “antinociceptive action in presence of benserazide” value (mice [1]; benserazide 1 mg/kg s.c.) was “did not give any significant effect” and the “antinociceptive action, kaolin-induced writhing” value (mice [2]; 200 mg/kg s.c.) was “significant antinociceptive action”. The “count of kaolin-induced writhing response” value (mice [2]; 200 mg/kg s.c.) was “decreased to the half”, the “decrease in writhing count” value (mice [2]; 200 mg/kg s.c., 30 minutes after administration) was “the observed decrease was insignificant” and the “decrease in writhing count” value (mice [2]; 200 mg/kg s.c., 2 hours after administration) was “the observed decrease was insignificant”. For the same compound, the “effect on writhing, dose dependence” value (mice [2]; [11]) was “dose-dependent in the range of 100 to 400 mg/kg”, the “time after administration at which significantly prolonged tail flick latency was observed” value (mice [3]; 400 mg/kg s.c.) was at least 40 min and the “time of maximum tail flick latency” value (mice [3]; 400 mg/kg s.c.) was “one”. The tail flick latency (mice [3]; 400 mg/kg s.c., 40 or more minutes after administration) was “significantly prolonged latency”, the “tail flick latency, significance of effect” value (mice [3]; 400 mg/kg s.c., 2 hours after administration) was “no significant effect was observed” and the “antinociceptive action, dose dependence (tail flick)” value (mice [3]; [11]) was “dose-dependent in the range of 100 to 400 mg/kg”. For the same compound, the “antinociceptive action in presence of naloxone (tail flick)” value (mice [4]; L-threo-DOPS 400 mg/kg, naloxone 1 mg/kg s.c., 60 minutes) was “hardly affected by morphine antagonist, naloxone”, the “type of analgesic activity” value (mice [4]) was “non-narcotic analgesic activity; also recorded: non-opiate type antinociceptive action” and the “antinociceptive action in presence of naloxone (kaolin-induced writhing)” value (mice [5]) was “hardly affected by morphine antagonist, naloxone”. The “effectiveness by oral administration” value (mice [6]; oral) was “also effective when orally administered”, the “time after administration at which significant effect was observed” value (mice [6]; oral, 200, 400 and 800 mg/kg) was at least 40 min and the “time of maximum antinociceptive effect” value (mice [6]; oral, 200, 400 and 800 mg/kg) was 60 min. For the same compound, the “antinociceptive action, dose dependence (oral tail flick)” value (mice [6]; oral, 200 to 800 mg/kg) was “dose-dependently”, the “effect of increased dose in formalin test” value (mice [7]; 400 mg/kg s.c., not shown in graphs) was “no better effect was obtained” and the “time required for nociceptive reaction (licking and biting), Phase I” value (mice [7]; 100 to 200 mg/kg s.c., 0-5 minutes after formalin) was “did not affect the time required for the nociceptive reaction”. The “time required for nociceptive reaction (licking and biting), Phase II” value (mice [7]; 100 to 200 mg/kg s.c., 10-30 minutes after formalin) was “dose-dependently inhibited the reaction”, the “inhibitory effect of phentolamine on L-threo-DOPS-induced prolongation of latency” value (mice [8]; L-threo-DOPS 400 mg/kg s.c., phentolamine 0.1 μg/mouse i.c.v.) was “also observed” and the “prolongation of latency by L-threo-DOPS in presence of phentolamine” value (mice [8]; L-threo-DOPS 400 mg/kg s.c., phentolamine 1 μg/mouse i.c.v.) was “almost completely inhibited”. For the same compound, the “antinociceptive action of L-threo-DOPS in presence of phentolamine, right graph of FIG. 5” value (mice [8]; L-threo-DOPS 400 mg/kg s.c., phentolamine 1 μg/mouse, printed intracerebralventricularly (right graph)) was “partially but significantly inhibited”.

With `Cc1ccc(N(CC2=NCCN2)c2cccc(O)c2)cc1` [phentolamine] the “tail flick latency, phentolamine alone” value (mice [8]; phentolamine 1 μg/mouse i.c.v.) was “did not affect the latency”.

For `N[C@H](C(=O)O)[C@H](O)c1ccc(O)c(O)c1` (relative stereo) [threo-DOPS, threo-3-(3,4-dihydroxyphenyl)serine], the LD50 ([9]; ip) was about 10000 mg/kg, the LD50 ([9]; po) was at least 10000 mg/kg and the toxicity (mouse) was “extremely weak toxicity”. The fate after administration ([10]; known, U.S. Pat. No. 4,497,826) was “transported to a brain that is a site on which threo-DOPS acts, and then decarboxylated therein into a corresponding noradrenaline”, the “transportation into brain in combination with decarboxylase inhibitor” value ([10]; with decarboxylase inhibitor, J. Pharm. Pharmacol., 1981, 33, 772-777) was “can be accelerated” and the “analgesic effect in kaolin-induced writhing test (summary)” value (mice [2]; s.c. and oral, mice) was “dose- dependently observed”. The “analgesic effect in tail-flick test (summary)” value (mice [3]; s.c., mice) was “exhibits the analgesic effect dose-dependently”, the “type of analgesic activity” value (mice [4]) was “non-narcotic” and the “analgesic effect in presence of naloxone (summary)” value (mice [4]; morphine antagonist naloxone, tail flick and kaolin tests) was “not antagonized by morphine antagonist, naloxone”. For the same compound, the “analgesic effect in formalin test (summary)” value (mice [7]; s.c. and oral, mice) was “dose- dependently observed” and the “analgesic effect in presence of phentolamine (summary)” value (mice [8]; adrenaline blocker phentolamine administered in the brain) was “suppressed”.
